Data on 8 compounds can be found in US6506707B1, “Herbicidal compositions containing plant essential oils and mixtures or blends thereof” (Ecosmart Technologies, Inc., priority 1999, dated 2003).

Test [1] concerns greenhouse-grown cabbage leaves. Description: Direct droplet bioassay on cabbage leaves (Examples 5 and 7). The class given is in vivo. To be noted: applied in one microliter of methanol; for EC50 (amount producing 50% of maximum effect): cabbage leaves; for relative toxicity to cabbage leaves (ranking by EC50): individual oils. How it is done: Various plant essential oils were tested for toxicity (herbicidal action) against greenhouse-grown cabbage leaves. Individual oils were ranked for relative toxicity using the direct droplet bioassay on the cabbage leaves.
Various plant essential oils were tested for synergistic effects on the toxicity (herbicidal action) against greenhouse-grown cabbage leaves. Individual oils were ranked for relative toxicity using the direct droplet bioassay on the cabbage leaves, and compared to mixtures at different ratios. […]

The test system of another test is dandelion. Description: Direct droplet bioassay on dandelion (Example 6). It counts as in vivo. The following applies: individual oils, applied in one microliter of methanol. How it is done:
Various plant essential oils were tested for toxicity (herbicidal action) against dandelion. Individual oils were ranked for relative toxicity using the direct droplet bioassay on the dandelion. EC50 values (amount producing 50% of maximum effect) were recorded in micrograms (all applied in one microliter of methanol) and plotted on a graph for comparison.

With `C=CCc1ccc(O)c(OC)c1` [Eugenol], the “EC50 (amount producing 50% of maximum effect)” value in test [1] was determined as 46.1 micrograms. The same measure, in the same setting: in the case of `CCC(=O)OCCc1ccccc1` [Phenethyl Propionate (PEP), Phenethyl Propionate] it was 158.8 micrograms. Same read-out and setting: the value for `Cc1ccc(C(C)C)c(O)c1` [Thymol] was 10.7 micrograms. Regarding `CC12CCC(CC1)C(C)(C)O2` [cineole, Cineole], the “relative toxicity to dandelion (ranking by EC50)” value (from here on “relative toxicity to dandelion”) with dandelion is recorded as “most toxic”. Consider `O=C/C=C/c1ccccc1` [cinnamic aldehyde, Cinnamic Aldehyde], for which the “relative toxicity to dandelion” value in the test with dandelion is reported as “most toxic”. For the same compound, in test [1], the “relative toxicity to cabbage leaves (ranking by EC50)” value (“relative toxicity to cabbage leaves” for short) is given as “most toxic”. For `CC(C)=CCCC(C)CC=O` (stereo not drawn) [citronellal, Citronellal], in the test on dandelion, the “relative toxicity to dandelion” value was “most toxic”. In test [1], the “relative toxicity to cabbage leaves” value is “most toxic”. On to `COC(=O)c1ccccc1O` [methyl salicylate, Methyl Salicylate], for which the “relative toxicity to dandelion” value in the test on dandelion is “most toxic”. For the same compound, in test [1], the “relative toxicity to cabbage leaves” value is “most toxic”.

On to `Cc1ccc(C(C)C)c(O)c1` [white thymol, White Thymol], for which, in the test with dandelion, the “relative toxicity to dandelion” value is reported as “most toxic”. In test [1], the “relative toxicity to cabbage leaves” value is on record as “most toxic”.
